Laboratory results: ChEMBL document CHEMBL1795338, “Identification of pentacyclic triterpenes derivatives as potent inhibitors against glycogen phosphorylase based on 3D-QSAR studies” (Eur J Med Chem, 2011)

Target: T1, Glycogen phosphorylase, muscle form (Oryctolagus cuniculus, UniProt P00489)
T1 sequence (P00489 whole entry): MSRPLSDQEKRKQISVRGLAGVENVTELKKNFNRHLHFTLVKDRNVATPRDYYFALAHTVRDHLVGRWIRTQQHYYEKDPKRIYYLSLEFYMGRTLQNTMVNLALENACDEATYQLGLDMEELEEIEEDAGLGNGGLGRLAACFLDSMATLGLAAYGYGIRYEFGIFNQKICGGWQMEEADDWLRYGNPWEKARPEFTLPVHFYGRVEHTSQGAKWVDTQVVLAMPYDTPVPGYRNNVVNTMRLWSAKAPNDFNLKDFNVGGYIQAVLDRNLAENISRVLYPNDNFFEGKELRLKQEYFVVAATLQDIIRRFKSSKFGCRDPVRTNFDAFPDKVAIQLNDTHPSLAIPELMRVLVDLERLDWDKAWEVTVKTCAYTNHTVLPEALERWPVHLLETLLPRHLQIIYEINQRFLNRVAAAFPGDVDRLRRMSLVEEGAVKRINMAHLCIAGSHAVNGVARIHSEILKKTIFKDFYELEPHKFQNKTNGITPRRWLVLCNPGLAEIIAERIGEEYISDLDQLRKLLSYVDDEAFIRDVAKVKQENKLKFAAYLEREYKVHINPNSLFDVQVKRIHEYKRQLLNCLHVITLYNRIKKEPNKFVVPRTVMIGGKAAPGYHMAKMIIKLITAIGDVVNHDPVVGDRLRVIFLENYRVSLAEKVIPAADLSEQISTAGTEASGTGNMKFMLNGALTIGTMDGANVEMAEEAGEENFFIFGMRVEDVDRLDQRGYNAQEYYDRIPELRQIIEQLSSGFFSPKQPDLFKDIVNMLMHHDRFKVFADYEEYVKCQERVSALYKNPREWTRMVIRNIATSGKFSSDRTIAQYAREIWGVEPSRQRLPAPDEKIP
Experiment: Inhibition of rabbit muscle glycogen phosphorylase A assessed as release of phosphate from glucose-1-phosphate after 25 mins by microplate reader based method

IC50 | Structure (SMILES)
91.2 µM | C[C@H]1[C@H](C)CC[C@]2(C(=O)OC3CC3)CC[C@]3(C)C(=CC[C@@H]4[C@@]5(C)C[C@@H](O)[C@H](O)C(C)(C)[C@@H]5CC[C@]43C)[C@H]12
132 µM | C[C@H]1[C@H](C)CC[C@]2(C(=O)OCCN3CCCCC3)CC[C@]3(C)C(=CC[C@@H]4[C@@]5(C)C[C@@H](O)[C@H](O)[C@@](C)(CO)[C@@H]5CC[C@]43C)[C@H]12
173 µM | C[C@H]1[C@H](C)CC[C@]2(C(=O)OCCN3CCOCC3)CC[C@]3(C)C(=CC[C@@H]4[C@@]5(C)C[C@@H](O)[C@H](O)[C@@](C)(CO)[C@@H]5CC[C@]43C)[C@H]12
43.4 µM | COS(=O)(=O)[C@@H]1C[C@]2(C)[C@H]3CC=C4[C@@H]5[C@@H](C)[C@H](C)CC[C@]5(C(=O)OCc5ccccc5)CC[C@@]4(C)[C@]3(C)CC[C@H]2C(C)(C)[C@H]1O
33 µM | COC(=O)[C@@]1(C)[C@@H]2CC[C@]3(C)[C@H](CC=C4[C@@H]5[C@@H](C)[C@H](C)CC[C@]5(C(=O)O)CC[C@]43C)[C@@]2(C)C[C@@H](OC(C)=O)[C@@H]1OC(C)=O
10 µM | CCCOC(=O)[C@@]1(C)[C@@H]2CC[C@]3(C)[C@H](CC=C4[C@@H]5[C@@H](C)[C@H](C)CC[C@]5(C(=O)O)CC[C@]43C)[C@@]2(C)C[C@@H](OC(=O)CCC)[C@@H]1OC(=O)CCC
67.8 µM | CC1(C)CC[C@]2(C(=O)O)CC[C@]3(C)C(=CC[C@@H]4[C@@]5(C)C[C@H](O)[C@H](O)[C@@](C)(CO)[C@@H]5CC[C@]43C)[C@@H]2C1
52.9 µM | CC1(C)CC[C@]2(C(=O)OCc3ccccc3)CC[C@]3(C)C(=CC[C@@H]4[C@@]5(C)CC(=O)[C@H](O)C(C)(C)[C@@H]5CC[C@]43C)[C@@H]2C1
28.2 µM | CC1(C)CC[C@]2(C(=O)O)CC[C@]3(C)C(=CC[C@@H]4[C@@]5(C)C/C(=N\O)[C@H](O)C(C)(C)[C@@H]5CC[C@]43C)[C@@H]2C1
179 µM | CC1(C)CC[C@]2(C(=O)OCc3ccccc3)CC[C@]3(C)C(=CC[C@@H]4[C@@]5(C)C/C(=N\O)[C@H](O)C(C)(C)[C@@H]5CC[C@]43C)[C@@H]2C1
26.1 µM | CC1(C)CC[C@]2(C(=O)O)CC[C@]3(C)C(=CC[C@@H]4[C@@]5(C)C/C(=N\O)C(=O)C(C)(C)[C@@H]5CC[C@]43C)[C@@H]2C1
46.8 µM | CC1(C)CC[C@]2(C(=O)OCc3ccccc3)CC[C@]3(C)C(=CC[C@@H]4[C@@]5(C)C/C(=N\O)C(=O)C(C)(C)[C@@H]5CC[C@]43C)[C@@H]2C1
82.9 µM | C[C@H]1[C@H](C)CC[C@]2(C(=O)OCc3ccccc3)CC[C@]3(C)C(=CC[C@@H]4[C@@]5(C)C/C(=N\O)C(=O)C(C)(C)[C@@H]5CC[C@]43C)[C@H]12
22.3 µM | CC1(C)CC[C@]2(C(=O)OCc3ccccc3)CC[C@]3(C)C(=CC[C@@H]4[C@@]5(C)CC(=N\O)/C(=N\O)C(C)(C)[C@@H]5CC[C@]43C)[C@@H]2C1
61.3 µM | CC1(C)CC[C@]2(C(=O)OCc3ccccc3)CC[C@]3(C)C(=CC[C@@H]4[C@@]5(C)C/C(=N\OCc6ccccc6)C(=O)C(C)(C)[C@@H]5CC[C@]43C)[C@@H]2C1
8 µM | CC1(C)CC[C@]2(C(=O)OCc3ccccc3)CC[C@]3(C)C(=CC[C@@H]4[C@@]5(C)C/C(=N\OCc6ccc(Cl)cc6Cl)C(=O)C(C)(C)[C@@H]5CC[C@]43C)[C@@H]2C1
12.7 µM | CC1(C)CC[C@]2(C(=O)O)CC[C@]3(C)C(=CC[C@@H]4[C@@]5(C)CC6C=NOC6C(C)(C)[C@@H]5CC[C@]43C)[C@@H]2C1 (some centres undefined)
19.6 µM | CC1(C)CC[C@]2(C(=O)OCc3ccccc3)CC[C@]3(C)C(=CC[C@@H]4[C@@]5(C)CC6C=NOC6C(C)(C)[C@@H]5CC[C@]43C)[C@@H]2C1 (some centres undefined)
11.2 µM | CC1(C)CC[C@]2(C(=O)O)CC[C@]3(C)C(=CC[C@@H]4[C@@]5(C)Cc6nonc6C(C)(C)[C@@H]5CC[C@]43C)[C@@H]2C1
66.3 µM | C[C@H]1[C@H](C)CC[C@]2(C(=O)O)CC[C@]3(C)C(=CC[C@@H]4[C@@]5(C)Cc6nonc6C(C)(C)[C@@H]5CC[C@]43C)[C@H]12
18.3 µM | Cc1ccc(-n2ncc3c2C(C)(C)[C@@H]2CC[C@]4(C)[C@H](CC=C5[C@@H]6CC(C)(C)CC[C@]6(C(=O)O)CC[C@]54C)[C@@]2(C)C3)cc1
242 µM | CC1(C)CC[C@]2(C(=O)O)CC[C@]3(C)C(=CC[C@@H]4[C@@]5(C)Cc6cnn(-c7ccc(Cl)cc7)c6C(C)(C)[C@@H]5CC[C@]43C)[C@@H]2C1

IC50 | Structure (SMILES)
46.9 µM | CC1(C)CC[C@]2(C(=O)O)CC[C@]3(C)C(=CC[C@@H]4[C@@]5(C)Cc6cnn(-c7cc(F)cc(F)c7)c6C(C)(C)[C@@H]5CC[C@]43C)[C@@H]2C1
69.6 µM | CC(C)c1ccc(-n2ncc3c2C(C)(C)[C@@H]2CC[C@]4(C)[C@H](CC=C5[C@@H]6CC(C)(C)CC[C@]6(C(=O)O)CC[C@]54C)[C@@]2(C)C3)cc1
106 µM | Cc1ccc(-n2ncc3c2C(C)(C)[C@@H]2CC[C@]4(C)[C@H](CC=C5[C@@H]6CC(C)(C)CC[C@]6(C(=O)OCc6ccccc6)CC[C@]54C)[C@@]2(C)C3)cc1
11.2 µM | CC1(C)CC[C@]2(C(=O)OCc3ccccc3)CC[C@]3(C)C(=CC[C@@H]4[C@@]5(C)Cc6cnn(-c7ccc(Cl)cc7)c6C(C)(C)[C@@H]5CC[C@]43C)[C@@H]2C1
13.1 µM | COc1ccc(-n2ncc3c2C(C)(C)[C@@H]2CC[C@]4(C)[C@H](CC=C5[C@@H]6CC(C)(C)CC[C@]6(C(=O)OCc6ccccc6)CC[C@]54C)[C@@]2(C)C3)cc1
37.7 µM | CC(=O)O[C@@H]1C[C@]2(C)[C@H]3CC=C4[C@@H]5[C@@H](C)[C@H](C)CC[C@]5(C(=O)O)CC[C@@]4(C)[C@]3(C)CC[C@H]2C(C)(C)[C@H]1O
78.7 µM | CCCC(=O)O[C@@H]1C[C@]2(C)[C@H]3CC=C4[C@@H]5[C@@H](C)[C@H](C)CC[C@]5(C(=O)O)CC[C@@]4(C)[C@]3(C)CC[C@H]2C(C)(C)[C@H]1OC(=O)CCC
62.1 µM | C[C@H]1[C@H](C)CC[C@]2(C(=O)OCn3cccn3)CC[C@]3(C)C(=CC[C@@H]4[C@@]5(C)C[C@@H](O)[C@H](O)C(C)(C)[C@@H]5CC[C@]43C)[C@H]12
102 µM | CCOC(=O)COC(=O)[C@]12CC[C@@H](C)[C@H](C)[C@H]1C1=CC[C@@H]3[C@@]4(C)C[C@@H](O)[C@H](O)C(C)(C)[C@@H]4CC[C@@]3(C)[C@]1(C)CC2
82.5 µM | CCCOC(=O)[C@]12CC[C@@H](C)[C@H](C)[C@H]1C1=CC[C@@H]3[C@@]4(C)C[C@@H](O)[C@H](O)C(C)(C)[C@@H]4CC[C@@]3(C)[C@]1(C)CC2
92.1 µM | CCCCOC(=O)[C@]12CC[C@@H](C)[C@H](C)[C@H]1C1=CC[C@@H]3[C@@]4(C)C[C@@H](O)[C@H](O)C(C)(C)[C@@H]4CC[C@@]3(C)[C@]1(C)CC2
3.26 µM | CCCCCC(=O)O[C@@H]1C[C@]2(C)[C@H]3CC=C4[C@@H]5[C@@H](C)[C@H](C)CC[C@]5(C(=O)O)CC[C@@]4(C)[C@]3(C)CC[C@H]2C(C)(C)[C@H]1O
41.2 µM | C[C@H]1[C@H](C)CC[C@]2(C(=O)OCc3ccccc3)CC[C@]3(C)C(=CC[C@@H]4[C@@]5(C)C[C@@H](O)[C@H](O)C(C)(C)[C@@H]5CC[C@]43C)[C@H]12
46.7 µM | CCOC(=O)[C@]12CC[C@@H](C)[C@H](C)[C@H]1C1=CC[C@@H]3[C@@]4(C)C[C@@H](O)[C@H](O)C(C)(C)[C@@H]4CC[C@@]3(C)[C@]1(C)CC2
31.8 µM | C[C@H]1[C@H](C)CC[C@]2(C(=O)OCc3ccccc3)CC[C@]3(C)C(=CC[C@@H]4[C@@]5(C)C[C@@H](O)C(=O)C(C)(C)[C@@H]5CC[C@]43C)[C@H]12
108 µM | C[C@H]1[C@H](C)CC[C@]2(C(=O)OCc3ccccc3)CC[C@]3(C)C(=CC[C@@H]4[C@@]5(C)C[C@H](O)[C@H](O)C(C)(C)[C@@H]5CC[C@]43C)[C@H]12
5.1 µM | C[C@H]1[C@H](C)CC[C@]2(C(=O)O)CC[C@]3(C)C(=CC[C@@H]4[C@@]5(C)C[C@@H](OC(=O)c6ccccc6)[C@H](O)C(C)(C)[C@@H]5CC[C@]43C)[C@H]12
35 µM | CC(=O)O[C@@H]1C[C@]2(C)[C@H]3CC=C4[C@@H]5[C@@H](C)[C@H](C)CC[C@]5(C(=O)O)CC[C@@]4(C)[C@]3(C)CC[C@H]2C(C)(C)[C@H]1OC(C)=O
73.7 µM | CCC(=O)O[C@@H]1C[C@]2(C)[C@H]3CC=C4[C@@H]5[C@@H](C)[C@H](C)CC[C@]5(C(=O)O)CC[C@@]4(C)[C@]3(C)CC[C@H]2C(C)(C)[C@H]1OC(=O)CC
69.5 µM | C[C@H]1[C@H](C)CC[C@]2(C(=O)OCc3ccccc3)CC[C@]3(C)C(=CC[C@@H]4[C@@]5(C)C[C@@H]6O[C@@H]6C(C)(C)[C@@H]5CC[C@]43C)[C@H]12
77.9 µM | CCCC(=O)O[C@@H]1C[C@]2(C)[C@H]3CC=C4[C@@H]5[C@@H](C)[C@H](C)CC[C@]5(C(=O)O)CC[C@@]4(C)[C@]3(C)CC[C@H]2C(C)(C)[C@H]1O
35.1 µM | CC1(C)CC[C@]2(C(=O)O)CC[C@]3(C)C(=CC[C@@H]4[C@@]5(C)Cc6cnn(-c7ccccc7)c6C(C)(C)[C@@H]5CC[C@]43C)[C@@H]2C1
